Columns and labels:
[1] = test system: MDA-MB-468 cells; assay: Growth rate (GR) inhibition, Cell Titer Glo 2.0, MDA-MB-468; assay type: cell-based, human; conditions: concentrations greater than 100 nM, 72 hours
Protocol: To determine the effect of Compound 1 on the growth of TNBC cancer cells, four different human TNBC cell lines were used—HCC70, MDA-MB-468, MDA-MB-453 and CAL120. Cells from each cell line were plated separately at 50,000 cells/mL (100 uL per well) in a black-walled 96 well plate and allowed to adhere overnight. In parallel, cells were plated in a separate day 0 plate to measure the number of cells present upon compound addition. The next day, Compound 1 was added to the wells with an HP 300e compound dispenser in a 10-point serial dilution and cells incubated for 72 hours. On the same day Cell Titer Glo 2.0 reagent was added to the day 0 plate, and the luminescence measured with an Envision plate reader per manufacture protocol. After 72 hours Cell Titer Glo 2.0 reagent was added to the plates and the luminescence measured. GR curves were calculated as follows: […]
wherein x(c) is the Compound 1 treatment luminescence); x0 is the average Day 0 luminescence); and xctrl is the average DMSO treatment luminescence, and graphed using Graph Pad Prism. A GR value of 1 indicates no growth inhibition; GR values between 0 and 1 indicate partial growth inhibition; a GR value of 0 indicates cytostasis (no change from baseline); GR values less than 0 indicate cytotoxicity (cell number less than baseline); a GR value of −1 indicates complete cell loss.

[2] = test system: MCL1 protein in OC1M1 cells; assay: Western blot, AML cell line OC1M1; assay type: cell-based; conditions: OC1M1 (high BCL-XL); 50 nM
Protocol: (§1) Cytotoxic cancer cell lines HCC70 and TOV21G, and cytostatic cancer cell lines T47D and COV318 were seeded in wells of a six-well dish at a density of 1×10^6 cells/well and allowed to adhere overnight. Cells were then treated with 50 nM of Compound 1 for 16 or 24 hours, or with DMSO (0 hours) representing a negative control. Cells were harvested and placed on ice, and resuspended in RIPA lysis buffer supplemented with protease and phosphatase inhibitors. Clarified lysates prepared with 4×LSD running buffer and boiled at 95° C. for 5 minutes. Equivalent amounts of sample (10 μg total protein) were run on a 4-12% Bis-Tris gel and transferred to a PDVF membrane for Western blotting using standard Western blotting protocols. Membranes were blocked with Licor TBS blocking buffer then probed with antibodies for BCL-XL, BCL-2, MCL1, BID, and GAPDH visualized using and Odyssey imager (FIGS. 23A and 23D).
We next explored the expression of MCL1, BCL-XL and BCL2 in four different AML cell lines. MV411, OCI-AML3 and KG1 cells were separately grown and prepared as described in Example 2 for Western blotting, using antibodies specific for BCL2 (FIG. 24A), BCL-XL, MCL-1 and tubulin as an internal control (FIG. 24B).

[3] = test system: BR5023 xenografts; assay: TNBC patient-derived xenograft BR5023, tumor volume; assay type: in vivo, mouse; conditions: 40 mg/kg or 30 mg/kg i.v. BIW
Protocol: Patient-derived xenograft (PDX) models from TNBC patients (BR5010, BR5013, BR5015, and BR5023) were established in NOD-SCID mice at Crown Bioscience (San Diego, USA). Cryo vials containing tumor cells were thawed and prepared for injection into mice. Cells were washed in PBS, counted, and resuspended in cold PBS at a concentration of 50,000-100,000 viable cells/100 ul. Cell suspensions were mixed with an equal volume of Cultrex ECM and kept on ice during transport to the vivarium. Cells were prepared for injections by withdrawing ECM-Cell mixture into a chilled slip-tip syringe fitted with a 26G 7/8 (0.5 mm×22 mm) needle. The filled syringes were kept on ice to avoid the solidification of ECM. Each mouse was inoculated subcutaneously in the right flank with 200 uL of the cell suspension. Tumor sizes were measured in two dimensions using a caliper, and the volumes were expressed in mm^3 using the formula: V=0.5 a×b^2, where a and b are the longest and shortest diameters of the tumor, respectively. Compound 1 treatment was started when the average tumor size reached 150-200 mm^3.
Compound 1 was formulated in w/v 20% Captisol (pH 4-6) and administered by i.v. twice weekly (BIW) at a final dose of 40 mg/kg or 30 mg/kg in a 10 ml/kg volume. Tumor volumes were measured twice weekly over the course of the study. […]

[4] = test system: MCL1 protein in MDAMB468 cells; assay: Western blot of BCL2 family proteins, MDAMB468; assay type: cell-based, human; conditions: 50 nM or 100 nM, 24 hours
Protocol: as §1
In a similar experiment, TNBC breast cancer cell lines HCC70, MDAMB468, MDAMB453 and CAL-120 were grown as described above and treated with DMSO, 50 nM Compound 1 or 100 nM Compound 1 for 24 hours. Protein samples were prepared as described above for Western blotting using antibodies specific for the indicated proteins in FIG. 29A. […]

[5] = test system: AML xenografts; conditions: previously shown; cited from earlier work
[6] = test system: homologous recombination deficiency / carboplatin sensitivity genes in TOV21G cells; assay: Nanostring PanCancer Pathways mRNA, TOV21G; assay type: cell-based; conditions: 50 nM, 16 hours
Protocol: Ovarian Cell lines OvCar3, TOV21G, A2780 and COV318 were plated at 500,000 cells/well in a 6-well plate the day before treatment. The next day the cells were treated with vehicle or 50 nM Compound 1 for 0, 6, or 16 hours after which cells were harvested and total RNA collected using RNeasy mini kit (Qiagen). Changes in mRNA between samples were analyzed with Nanostring™ PanCancer Pathways Panels specifically analyzing genes related to homologous recombination deficiency and carboplatin sensitivity (ie. BRCA1, BRCA2, Rad51, ATM, ATR, MSH2, MSH6). Nanostring signal intensities were first normalized to housekeeping genes across all cell lines, and then normalized to the 0 hour timepoint within a cell line.

For `CN(C)C/C=C/C(=O)Nc1ccc(C(=O)N[C@@]2(C)CCC[C@@H](Nc3ncc(Cl)c(-c4c[nH]c5ccccc45)n3)C2)nc1` [Compound 1, N-((1S,3R)-3-(5-chloro-4-(1H-indol-3-yl)pyrimidin-2-ylamino)-1-methylcyclohexyl)-5-((E)-4-(dimethylamino)but-2-enamido)picolinamide], the “Inhibition of growth (GR curve)” value [1] was “almost complete inhibition of growth”, the “MCL1 protein level (Western blot)” value [2] was “little effect” and the “Tumor growth vs untreated historical samples” value [3] was “little inhibitory effect on tumor growth”. For the same compound, the “MCL1 protein level (Western blot)” value [4] was “downregulated”, the Anti-tumor activity [5] was “anti-tumor activity” and the “mRNA of genes related to homologous recombination deficiency and carboplatin sensitivity, all genes except Rad51 (BRCA1, BRCA2, ATM, ATR, MSH2, MSH6)” value [6] was “downregulated”.
